The source of these data is publication PMC11714206, “Massively Parallel Screening of Toll/Interleukin‐1 Receptor (TIR)‐Derived Peptides Reveals Multiple Toll‐Like Receptors (TLRs)‐Targeting Immunomodulatory Peptides” (Advanced Science, 2024).

The assay has as its target T1, MAL^TIR (Homo sapiens, UniProt P58753).
T1 construct: MAL (residues 79–221); 6xHis; made in house; host or cells: E. coli BL21 (DE3)
The assay can be described thus: T‐Surf phage library (P8 and P3) selection against MAL^TIR, four rounds, NGS read counts. The class given is binding. To be noted: for P3_MAL Rank (after) / P3_MAL Rank (before): P3 library; for Population: 4th round of selection against MAL TIR, share of NGS reads; for P8_MAL Rank (after) / P8_MAL Rank (before): P8 library. The essentials:
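Read counts come from NGS of phage pools after the fourth selection round, barcoded by 20-cycle PCR and filtered for quality ≥30. Each round: phage incubated 1 h at RT on immobilised TIR protein (5 µg mL^−1, BSA-blocked), washed, HCl-eluted and amplified in E. coli TG1.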

Setting [1] is: selection against MAL TIR, rank by count after grouping.
The mark [2] stands for this setting: selection against MAL TIR, rank by count before grouping.
[3] abbreviates: P3_MAL: rank by count after grouping.
The mark [4] stands for this setting: P3_MAL: rank by count before grouping.
Setting [5] is: P3_MAL pool: P3 T-Surf phage library.
Where [6] appears, read: selection against MAL, rank after grouping.
[7] abbreviates: selection against MAL, rank before grouping.
Where [8] appears, read: P8_MAL: rank by count after grouping.
Setting [9] is: P8_MAL: rank by count before grouping.
The mark [10] stands for this setting: P8_MAL pool: P8 T-Surf phage library.
The mark [11] stands for this setting: 4R selection against MAL, rank after grouping.
The mark [12] stands for this setting: 4R selection against MAL, rank before grouping.
Where [13] appears, read: selection against MAL, rank by count after grouping.
[14] abbreviates: selection against MAL, rank by count before grouping.

“And” between values parts separate entries of the source, which are not always exact repeats. Equal values may be shown once.

T1 sequence (P58753 79-221): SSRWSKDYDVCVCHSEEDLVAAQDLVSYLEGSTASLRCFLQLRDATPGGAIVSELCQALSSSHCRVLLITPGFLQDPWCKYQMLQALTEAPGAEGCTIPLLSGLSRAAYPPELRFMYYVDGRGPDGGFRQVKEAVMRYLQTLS

Consider YAFTGHLHRYHLPAPQH, for which the “P3_MAL Rank (after)” value under setting [1] is 277. Further, the “P3_MAL Rank (before)” value under setting [2] is 739.

FMSHLRHHLQAKDH: the “Rank (after)” value under setting [3] is recorded as 166. Also, under setting [4], the “Rank (before)” value came out at 709.

For PNLRTKVLNYLMRTK, the “Rank (after)” value under setting [3] is on record as 174. Moreover, the “Rank (before)” value under setting [4] was 955.

Under setting [5], RVFLSHLRHHLQAKDH had a Population of 0.0124%.

Turning to ESILNHPRRSSQILSN, the “P3_MAL Rank (after)” value under setting [6] amounted to 516. Moreover, the “P3_MAL Rank (before)” value under setting [7] was determined as 2047.

Consider KEVEGWRDALSSIASRP, for which the “Rank (after)” value under setting [3] came out at 163. In addition, under setting [4], the “Rank (before)” value was 685.

As to RNYVAYLFQALASKGI, the “Rank (after)” value under setting [8] is 407. The “Rank (before)” value under setting [9] amounted to 2249.

Take HQAFTGHLHRYLVQRGV: under setting [1], the “P3_MAL Rank (after)” value came to 192. In addition, the “P3_MAL Rank (before)” value under setting [2] was 979.

As to RNFVAYLFRARANKGI, the “P8_MAL Rank (after)” value under setting [1] was 225. Also, the “P8_MAL Rank (before)” value under setting [2] worked out at 2193.

PNLRTKVLSYLMRTKT displayed a Population under setting [5] of 0.00376%.

Consider AFLWAYLNSVTHPPTF, for which the “Rank (after)” value under setting [8] was determined as 471. The “Rank (before)” value under setting [9] worked out at 1796.

Regarding YAFTRHLHRYLVQRAA, under setting [6], the “P3_MAL Rank (after)” value worked out at 553. Moreover, under setting [7], the “P3_MAL Rank (before)” value was determined as 1465.

WFFERLVSLILRDTKV registered a Population under setting [10] of 0.0034%.

For the sequence YAFTGHLTGYLVQRGV, under setting [1], the “P3_MAL Rank (after)” value is recorded as 220. Further, under setting [2], the “P3_MAL Rank (before)” value came out at 1438.

Take SFYWRQVSIILGDPTV: under setting [1], the “P8_MAL Rank (after)” value is reported as 249. For the same sequence, the “P8_MAL Rank (before)” value under setting [2] was found to be 1442.

As to NQWRNALTAAANLRGR, under setting [3], the “Rank (after)” value is given as 145. Under setting [4], the “Rank (before)” value is on record as 3369.

Consider HQAFWDRLWAKLKAPI, for which the “P8_MAL Rank (after)” value under setting [6] is listed as 546. Also, the “P8_MAL Rank (before)” value under setting [7] is listed as 2337.

As for HQALWALMWAKHQTPI, under setting [11], the “P3_MAL Rank (after)” value is given as 623. Moreover, the “P3_MAL Rank (before)” value under setting [12] is 2894.

Take TFLGHLSNGLVQAGIH: the “Rank (after)” value under setting [8] worked out at 478. For the same sequence, the “Rank (before)” value under setting [9] came to 2556.

Turning to RLLKWKEALHQFHSWV, under setting [5], the Population is listed as 0.00451%. For the same sequence, under setting [8], the “Rank (after)” value turned out to be 115. The “Rank (before)” value under setting [9] amounted to 655.

RGFLSKLSQHILKREK: the “P3_MAL Rank (after)” value under setting [1] came out at 283. For the same sequence, the “P3_MAL Rank (before)” value under setting [2] is on record as 894.

Turning to YAFTGHLHRYLVQRRS, under setting [13], the “P3_MAL Rank (after)” value was 704. Further, the “P3_MAL Rank (before)” value under setting [14] was determined as 1408.

In turn, AFFGAQLKSVLGNPTM showed a Population under setting [10] of 0.0034%.

For WLYERLVSLILRDTQV, the “Rank (after)” value under setting [8] is recorded as 108. Besides, under setting [9], the “Rank (before)” value was 1426.

With WFYERLVGLILRDTKV, the Population under setting [10] amounted to 0.0034%.

Regarding AFFWEQMRTVLGKPTT, the “P8_MAL Rank (after)” value under setting [11] is on record as 612. Moreover, the “P8_MAL Rank (before)” value under setting [12] was found to be 1710.

Regarding YAFTDHLHRYLVQRGV, the Population under setting [5] is given as 0.00451%.

Regarding RGFLSHLHHALRLNKIEAF, the “P3_MAL Rank (after)” value under setting [13] is on record as 747. Further, the “P3_MAL Rank (before)” value under setting [14] is 2390.

As for WFYERLVNLNLRDTKV, under setting [8], the “Rank (after)” value is on record as 140. Under setting [9], the “Rank (before)” value is reported as 1242.

Take VEQTQVRKPSGAVENA: under setting [11], the “P3_MAL Rank (after)” value turned out to be 627. Also, the “P3_MAL Rank (before)” value under setting [12] came out at 1687.

As to NQWSNELTAAANLRGW, under setting [6], the “P3_MAL Rank (after)” value turned out to be 575. For the same sequence, under setting [7], the “P3_MAL Rank (before)” value came to 3420.

For the sequence LFFCESLKQLLRSDGR, the Population under setting [10] is 0.00371% and 0.0034%.

For the sequence WFYERLVILILRDTKV, under setting [10], the Population is recorded as 0.00278%.

Regarding PNLRTKELIYLMRTKT, under setting [11], the “P3_MAL Rank (after)” value stood at 667. In addition, the “P3_MAL Rank (before)” value under setting [12] worked out at 2738.

As to RLLNGKKRCISFIAG, the “P3_MAL Rank (after)” value under setting [1] came to 261. Also, the “P3_MAL Rank (before)” value under setting [2] is recorded as 2475.

As for WFYERLVSLILRHTKL, the “Rank (after)” value under setting [8] came out at 187. Moreover, the “Rank (before)” value under setting [9] amounted to 1155.

In the case of SSCREGLWRLLELCKK, the “P3_MAL Rank (after)” value under setting [11] is 635. Further, under setting [12], the “P3_MAL Rank (before)” value amounted to 3210.

For MERVKAFHQRLKTALGH, the “P3_MAL Rank (after)” value under setting [11] came to 587. In addition, the “P3_MAL Rank (before)” value under setting [12] was 2929.

For the sequence RNVMSHLYQGLQNRGI, the “Rank (after)” value under setting [3] was 441. The “Rank (before)” value under setting [4] stood at 2614.

Turning to KNLFNELVSKNIRTFM, under setting [8], the “Rank (after)” value is recorded as 116. The “Rank (before)” value under setting [9] came to 732.

Regarding AFFWAQLQSMLGNPTM, under setting [8], the “Rank (after)” value is 138. The “Rank (before)” value under setting [9] was 1605.
